Laboratory results published in patent publication US20090311344A1, “Dosing Regimen” (priority 2008, published 2009).
Entries after “also recorded” stand apart in the source; their conditions may differ.

Experiments:
platelet count = experiment: Multiple dose study in cancer subjects receiving platinum-based chemotherapy: platelet counts; assay type: in vivo, human; details: for Maximum Platelet Counts, Geometric Mean: in 10^9/L (unit assumed)
Source text: A total of 7 subjects were excluded from the preliminary statistical analysis of Day 42 platelet count data and 9 subjects were excluded from the preliminary statistical analysis of Day 42 hemoglobin data due to either incorrect randomization, platelet transfusion, not administered the 2nd dose of study medication, or lost to follow-up.

[1] = mouse, in vivo
Source text: (§1) Animals were weighed daily for the first five days of the study and then twice weekly.
(§2) Animals were monitored for adverse treatment-related effects by frequent observation and body-weight (BW) measurements (data not shown).

[2] = Single dose study in healthy subjects: pharmacokinetics; assay type: in vivo, human
Description: The median tmax of the TPO mimetic peptide compound ranged between 0.09 to 2 hours following single i.v. administration. […] However, the elimination phase appeared consistent across the dose range.

hemoglobin = experiment: Multiple dose study in cancer subjects receiving platinum-based chemotherapy: hemoglobin; assay type: in vivo, human
[3] = toxicity / side effects in HT-29 tumor-bearing mice
Source text: as §1, §2

In the case of “Methoxypolyethyleneglycol20000-propionyl-L-Isoleucyl-L-Glutamyl-Glycyl-L-Prolyl-L-Threonyl-L-Leucyl-L-Arginyl-L-Glutaminyl-L-2-Naphthylalanyl-L-Leucyl-L-Alanyl-L-Alanyl-L-Arginyl-Sarcosyl-Ne-(methoxypolyethyleneglycol20000-propionyl-L-Isoleucyl-L-Glutamyl-Glycyl-L-Prolyl-L-Threonyl-L-Leucyl-L-Arginyl-L-Glutaminyl-L-2-Naphthylalanyl-L-Leucyl-L-Alanyl-L-Alanyl-L-Arginyl-Sarcosyl-)-Lysinamide [TPO mimetic peptide compound]”, the course of platelets (platelet count; 1.5 μg/kg dose) is reported as “continued to decline up to Day 15”, the “platelets as compared to the placebo subjects” value (platelet count; 1.5 μg/kg dose) is reported as “no apparent difference” and the “day of mean peak platelets” value (platelet count; 3.0 μg/kg dose) is reported as 15 days. For the same substance, the “subjects with platelet increase of more than 3 times the baseline (≧3-fold)” value (platelet count; 1.5 and 2.25 μg/kg dose) was “no subjects; also recorded: none of the subjects”, the “day of peak platelets” value (platelet count; 2.25 and 1.5 μg/kg doses) was 21 days and the “platelet nadir and peak platelet counts relative to placebo” value (platelet count; 2.25 and 3 μg/kg dose) was “approximately 2 fold”. The “day of mean platelet nadir” value (platelet count; 2.25 and 3 μg/kg dose groups) was 10 days, the “platelet count as compared with placebo” value (platelet count; 2.25 and 3 μg/kg doses) was “reduction in chemotherapy-induced decline in platelets and faster recovery relative to placebo; also recorded: increased platelet count” and the “Maximum Platelet Counts, GMR (Active/Placebo)” value (platelet count; Across, 1.5 μg/kg) was 1.0. The “Minimum Platelet Counts, GMR (Active/Placebo)” value (platelet count; Across, 1.5 μg/kg) was 0.6, the “Minimum Platelet Counts, Geometric Mean” value (platelet count; Across, 1.5 μg/kg) was 33.99 and the “Maximum Platelet Counts, Geometric Mean” value (platelet count; Across, 1.5 μg/kg) was 371.53. The “Maximum Platelet Counts, GMR (Active/Placebo)” value (platelet count; Across, 2.25 μg/kg) was 1.6, the “Minimum Platelet Counts, GMR (Active/Placebo)” value (platelet count; Across, 2.25 μg/kg) was 2.7 and the “Minimum Platelet Counts, Geometric Mean” value (platelet count; Across, 2.25 μg/kg) was 163.71. For the same substance, the “Maximum Platelet Counts, Geometric Mean” value (platelet count; Across, 2.25 μg/kg) was 570.39, the “Maximum Platelet Counts, GMR (Active/Placebo)” value (platelet count; Across, 3.0 μg/kg) was 1.8 and the “Minimum Platelet Counts, GMR (Active/Placebo)” value (platelet count; Across, 3.0 μg/kg) was 2.0. The “Minimum Platelet Counts, Geometric Mean” value (platelet count; Across, 3.0 μg/kg) was 121.61, the “Maximum Platelet Counts, Geometric Mean” value (platelet count; Across, 3.0 μg/kg) was 633.09 and the “Maximum Platelet Counts, GMR (Active/Placebo)” value (platelet count; Cycle 1, 1.5 μg/kg) was 1.1. The “Minimum Platelet Counts, GMR (Active/Placebo)” value (platelet count; Cycle 1, 1.5 μg/kg) was 0.5, the “Minimum Platelet Counts, Geometric Mean” value (platelet count; Cycle 1, 1.5 μg/kg) was 47.01 and the “Maximum Platelet Counts, Geometric Mean” value (platelet count; Cycle 1, 1.5 μg/kg) was 331.25. The “Maximum Platelet Counts, GMR (Active/Placebo)” value (platelet count; Cycle 1, 2.25 μg/kg) was 1.8, the “Minimum Platelet Counts, GMR (Active/Placebo)” value (platelet count; Cycle 1, 2.25 μg/kg) was 2.3 and the “Minimum Platelet Counts, Geometric Mean” value (platelet count; Cycle 1, 2.25 μg/kg) was 213.46. The “Maximum Platelet Counts, Geometric Mean” value (platelet count; Cycle 1, 2.25 μg/kg) was 557.78, the “Maximum Platelet Counts, GMR (Active/Placebo)” value (platelet count; Cycle 1, 3.0 μg/kg) was 2.1 and the “Minimum Platelet Counts, GMR (Active/Placebo)” value (platelet count; Cycle 1, 3.0 μg/kg) was 2.0. The “Minimum Platelet Counts, Geometric Mean” value (platelet count; Cycle 1, 3.0 μg/kg) was 191.17, the “Maximum Platelet Counts, Geometric Mean” value (platelet count; Cycle 1, 3.0 μg/kg) was 641.56 and the “Maximum Platelet Counts, GMR (Active/Placebo)” value (platelet count; Cycle 2, 1.5 μg/kg) was 1.0. The “Minimum Platelet Counts, GMR (Active/Placebo)” value (platelet count; Cycle 2, 1.5 μg/kg) was 1.0, the “Minimum Platelet Counts, Geometric Mean” value (platelet count; Cycle 2, 1.5 μg/kg) was 75.10 and the “Maximum Platelet Counts, Geometric Mean” value (platelet count; Cycle 2, 1.5 μg/kg) was 290.55. The “Maximum Platelet Counts, GMR (Active/Placebo)” value (platelet count; Cycle 2, 2.25 μg/kg) was 1.4, the “Minimum Platelet Counts, GMR (Active/Placebo)” value (platelet count; Cycle 2, 2.25 μg/kg) was 2.2 and the “Minimum Platelet Counts, Geometric Mean” value (platelet count; Cycle 2, 2.25 μg/kg) was 175.08. The “Maximum Platelet Counts, Geometric Mean” value (platelet count; Cycle 2, 2.25 μg/kg) was 397.37, the “Maximum Platelet Counts, GMR (Active/Placebo)” value (platelet count; Cycle 2, 3.0 μg/kg) was 1.4 and the “Minimum Platelet Counts, GMR (Active/Placebo)” value (platelet count; Cycle 2, 3.0 μg/kg) was 2.2. For the same substance, the “Minimum Platelet Counts, Geometric Mean” value (platelet count; Cycle 2, 3.0 μg/kg) was 170.16, the “Maximum Platelet Counts, Geometric Mean” value (platelet count; Cycle 2, 3.0 μg/kg) was 401.20 and the “platelet elevations in the second cycle” value (platelet count; all subjects) was “below 3 times the baseline”. The “day of maximum effect on platelet count after administration” value (platelet count; human, in vivo) was 15 days, the “increase in platelet count relative to baseline” value (platelet count; second cycle, 3.0 μg/kg dose) was “approximately 2 fold” and the “treatment-related (TR) deaths” value [1] was “no treatment-related (TR) deaths”. For the same substance, the Cmax dose proportionality [2] was “increased approximately dose proportionally”, the mean terminal half-life ([2]; 3 μg/kg, not well defined) was “approximately 36 hours” and the AUC dose proportionality ([2]; 1.5- to 3-μg/kg dose range) was “no apparent dose proportionality”. The “hemoglobin as compared with placebo” value (hemoglobin; 2.25 and 3 μg/kg doses) was “trends for preservation of hemoglobin”, the “Change From Baseline in Hemoglobin, Diff of LS Mean (SE) vs Placebo” value (“Change From Baseline … (SE) vs Placebo” for short) (hemoglobin; Day 42, 1.5 μg/kg) was 0.54 (0.63) and the “Change From Baseline … (SE) vs Placebo” value (hemoglobin; Day 42, 3.0 μg/kg) was 1.00 (0.61). The “Change From Baseline in Hemoglobin, LS Mean (SE)” value (hemoglobin; Day 42, 3.0 μg/kg) was −1.16 (0.47), the “Change From Baseline … (SE) vs Placebo” value (hemoglobin; Day 63, 1.5 μg/kg) was −0.75 (0.90) and the “Change From Baseline in Hemoglobin, LS Mean (SE)” value (hemoglobin; Day 63, 1.5 μg/kg) was −2.98 (0.70). For the same substance, the “Change From Baseline … (SE) vs Placebo” value (hemoglobin; Day 63, 2.25 μg/kg) was 0.68 (0.83), the “Change From Baseline in Hemoglobin, LS Mean (SE)” value (hemoglobin; Day 63, 2.25 μg/kg) was −1.55 (0.61) and the “Change From Baseline … (SE) vs Placebo” value (hemoglobin; Day 63, 3.0 μg/kg) was 0.79 (0.83). For the same substance, the “Change From Baseline in Hemoglobin, LS Mean (SE)” value (hemoglobin; Day 63, 3.0 μg/kg) was −1.44 (0.61), the “Change From Baseline … (SE) vs Placebo” value (hemoglobin; Day 84, 1.5 μg/kg) was 0.05 (0.73) and the “Change From Baseline in Hemoglobin, LS Mean (SE)” value (hemoglobin; Day 84, 1.5 μg/kg) was −1.88 (0.55). The “Change From Baseline … (SE) vs Placebo” value (hemoglobin; Day 84, 2.25 μg/kg) was 0.37 (0.77), the “Change From Baseline in Hemoglobin, LS Mean (SE)” value (hemoglobin; Day 84, 2.25 μg/kg) was −1.56 (0.61) and the “Change From Baseline … (SE) vs Placebo” value (hemoglobin; Day 84, 3.0 μg/kg) was 1.57 (0.77). The “Change From Baseline in Hemoglobin, LS Mean (SE)” value (hemoglobin; Day 84, 3.0 μg/kg) was −0.36 (0.61), the “change in hemoglobin levels from baseline to the end of Cycle 2 (Day 42) and beyond” value (hemoglobin; preliminary evaluation) was “dose-related trend for preservation of hemoglobin” and the “large spleens in necropsied animals” value ([3]; Group 3) was “⅖”. For the same substance, the “mean BW losses” value ([3]; monotherapy (Group 3)) was “no mean BW losses” and the tolerability ([3]; monotherapy (Group 3), 0.2 mg/kg i.v. Days 2, 13) was “well tolerated”.
